The data set in a line: Residence time / pharmacokinetics of pilocarpine in the tear fluid. Further details: species or system male New Zealand albino rabbits. As to conditions: rabbit, in vivo. The source says:
Specifically, all of the ophthalmic preparations employed in the tests shown herein contain 2.0% by weight of pilocarpine nitrate (PiNO3), but the control preparation referred to in the following table as RS (i.e. reference solution) is an aqueous solution without any thickening agent, while the preparation according to the invention, referred to below as "TSP", is formulated according to Example 2.1.
All of the tests described herein have been carried out on male New Zealand albino rabbits weighing 3-3.5 kg, non anesthesized and kept in standard stabling conditions, at a temperature of 18-20° C. Both the miotic effect and the residence time of the drug in the tear fluid were measured after instillation (at the time=0) of 25 μl of the preparation under study in the lower conjunctival sac of one eye of the rabbits, while the other eye served as a control.
In order to verify whether the product according to the invention was able to prolong, in comparison with other vehicles, the residence of the drug in the precorneal area, the following test was carried out: after instillation of one of the preparations under test, samples of tear fluid (1 μl) were collected, at suitable time intervals, from the rim portion of the lower conjunctival sac, using a microcapillary and avoiding any contact with the corneal epithelium. The tear fluid samples, transferred into microprobes, were diluted with water and analysed by HPLC.
The results of said test are reported, in terms of pilocarpine concentration (μg/μl) detected in the tear fluid as a function of time, in Table 9 and in the corresponding FIG. 7.
The differences in the performance of the various vehicles are better evidenced by the following table, reporting the pharmacokinetic parameters of pilocarpine in the tear fluid, in the various formulations, as calculated from the tests described above. The said parameters are as follows:
Ke : apparent clearance velocity constant
AUCrel : AUC relative to the reference solution
t1/2 : half-life time of the drug in the tear fluid
MRT: mean residence time of the drug in the tear fluid.

With HPMC, the “AUC t3min→∞” value amounted to 23.13 µg·min/µL; the “AUCrel, AUC relative to the reference solution” value is on record as 6.27; the “Ke, apparent clearance velocity constant” value is 0.098 min⁻¹; the “MRT, mean residence time” value stood at 8.83 min. The “increase in half-life with respect to the reference solution” value was “almost of double”. Besides, the “pilocarpine concentration in the tear fluid” value (shortened to “pilocarpine concentration”) (3 min) was 3.894 µg/µL. Besides, the “pilocarpine concentration” value (5 min) was found to be 1.9 µg/µL. In addition, where the note is “10 min”, the “pilocarpine concentration” value came out at 1.03 µg/µL. Also, for the setting “15 min”, the “pilocarpine concentration” value was 0.583 µg/µL. Further, the “pilocarpine concentration” value (30 min) came to 0.074 µg/µL. Besides, the “pilocarpine concentration” value (45 min) amounted to 0.025 µg/µL. Moreover, for the setting “60 min”, the “pilocarpine concentration” value stood at 0.016 µg/µL.

The values above are taken from patent publication US6056950A, “Ophthalmic solutions viscosified with tamarind seed polysaccharide” (Farmigea S.p.A., priority 1996, dated 2000).
